Laboratory results reported in publication PMC11217349, “Development of Nurr1 agonists from amodiaquine by scaffold hopping and fragment growing” (Communications Chemistry, 2024).
“And” between values parts separate entries of the source, which are not always exact repeats. Identical values can stand only once. Like-named read-outs stand apart in the source and are kept apart here.

What was measured:
[1] = Parallel artificial membrane permeability assay (PAMPA); format: in vitro ADME; settings: 500 µM donor, pH 7.4, 18 h
Method: Passive lipid membrane diffusion of test compounds was determined using Merck Millipore MultiScreen Filter Plates (0.45 μm pore diameter, hydrophobic PVDF). The filter inserts were coated with 1% L-α-phosphatidylcholine (Fluka Analytical) in n-dodecan. The test compounds were then added to the donor compartment at a final concentration of 500 µM in a phosphate buffer pH 7.4 containing 5% DMSO with a total volume of 150 µL. The acceptor compartment was filled with 300 µL PBS containing 5% DMSO. Additionally, three equilibrium samples were prepared by directly adding the donor solution to the acceptor compartment for the calculation of log Pe values. The filter plates were incubated for 18 h before the test compound concentrations in the acceptor compartments and in the equilibrium, samples were determined by UV absorbance at 320 nm (34), 360 nm (36), 310 nm (41), or 315 nm (42) with external calibration in a 96 well quartz plate on a SpectraMax M2e microplate reader (Molecular Devices). logPe values were calculated according to the formula published by Sugano and colleagues.

[2] = molecular target: T1, human Nurr1 (hinge region and ligand binding domain) (Homo sapiens, UniProt P43354); test: Gal4-Nurr1 hybrid reporter gene assay; format: cell-based; settings: for max. activation: maximum effect vs. 0.1% DMSO control; for highest non-toxic concentration: Gal4-Nurr1 hybrid reporter gene assay
T1 construct: expressed in transfected cells; host or cells: HEK293T
Method: Nurr1 modulation was determined in a Gal4 hybrid reporter gene assay in HEK293T cells (German Collection of Microorganisms and Cell Culture GmbH, DSMZ) using pFR-Luc (Stratagene, La Jolla, CA, USA; reporter), pRL-SV40 (Promega, Madison, WI, USA; internal control) and pFA-CMV-hNurr1-LBD[14], coding for the hinge region and ligand binding domain of the canonical isoform of human Nurr1. […] After 24 h, the medium was changed to Opti-MEM without supplements, and cells were transiently transfected using Lipofectamine LTX reagent (Invitrogen, Carlsbad, CA, USA) according to the manufacturer’s protocol. Five hours after transfection, cells were incubated with the test compounds in Opti-MEM supplemented with penicillin (100 U/mL), streptomycin (100 μg/mL), and 0.1% DMSO for 16 h before luciferase activity was measured using the Dual-Glo Luciferase Assay System (Promega) according to the manufacturer’s protocol on a Tecan Spark luminometer (Tecan Deutschland GmbH, Crailsheim, Germany). Firefly luminescence was divided by Renilla luminescence and multiplied by 1000 resulting in relative light units (RLU) to normalize for transfection efficiency and cell growth. Fold activation was obtained by dividing the mean RLU of the test compound by the mean RLU of the untreated control. All samples were tested in at least three biologically independent experiments in duplicates. For dose-response curve fitting and calculation of EC50 values, the equation “[Agonist] vs. response -- Variable slope (four parameters)” was used in GraphPad Prism (version 7.00, GraphPad Software, La Jolla, CA, USA). Selectivity profiling was performed with identical procedures using pFA-CMV-Nur77-LBD[14], pFA-CMV-NOR-1-LBD[14], pFA-CMV-THRα-LBD[51], pFA-CMV-RARα-LBD[52], pFA-CMV-PPARα-LBD[53], pFA-CMV-PPARγ-LBD[53], pFA-CMV-PPARδ-LBD[53], pFA-CMV-LXRα-LBD[54], pFA-CMV-FXR-LBD[55] and pFA-CMV-hRXRα-LBD[56].

Microsomal stability = format: in vitro ADME, rat; settings: incubation of 36 with rat liver microsomes, listed as 36-NH2
Method: To determine microsomal stability, test compounds (10 μM) were incubated in 100 mM potassium phosphate buffer at pH 7.4 (total volume of 100 µL) containing 0.5 mg/mL male rat liver microsomes (Sprague-Dawley, no. M9066, Merck KGaA, Darmstadt) and 1 mM NADPH for 0, 15, 30, or 60 min. At the end of the incubation time, microsomal activity was terminated by the addition of 500 µL MeCN and subsequent centrifugation at 1700 g for 5 min. A reaction mixture containing heat-inactivated microsomes (95 °C, 10 min) was prepared as a control for each compound. 5 µL supernatant of each sample was analyzed and the remaining concentrations of the respective test compounds at each time point were determined by LC-MS/MS on an API-3200-QTrap (Sciex) with an Agilent Technologies 1100 series setup including a binary pump (G1311A), a degasser (G1322A), and a Shimadzu SIL 20 A HT autosampler under the control of Analyst 1.6 (Sciex). A XBridge BEH C18 (3.5 µm, 150 mm×3 mm, Waters, protected with a 0.5 µm frit) stationary phase was used in combination with a gradient method starting with 0.1% formic acid in water (A) and MeCN (B) as mobile phase (A:B = 80:20) for 6 min going to A: B = 50:50 after 8 min. 5 µL of supernatant diluted in mobile phase starting conditions was loaded onto the column, separated at a flow rate of 400 µL/min, and detected and quantified per Area of MRM (multiple reaction monitoring) with the following transitions: m/z 381.797/145.000 (34); m/z 395.125/158.200 (36); m/z 409.822/131.000 (41); m/z 407.838/171.100 (42).

Nurr1 LBD = molecular target: T2, Nurr1 LBD (Homo sapiens, UniProt P43354); test: Isothermal titration calorimetry (ITC); format: binding; settings: 25 °C
T2 construct: Nurr1 LBD protein (5–30 µM, expressed as described previously[21]); made in house
Method: ITC experiments were conducted on an Affinity ITC instrument (TA Instruments, New Castle, DE) at 25 °C with a stirring rate of 75 rpm. Nurr1 LBD protein (5–30 µM, expressed as described previously[21]) in buffer (20 mM Tris pH 7.5, 100 mM NaCl, 5% glycerol) containing 1–4% DMSO was titrated with the test compounds (30–150 μM in the same buffer containing 1-4% DMSO) in 26 injections (1 × 1 µL, 25 × 3-4 μL) with an injection interval of 120-150 s. As control experiments, the test compounds were titrated to the buffer, and the buffer was titrated to the Nurr1 LBD protein under otherwise identical conditions. Results were analyzed using NanoAnalyze software (version 3.11.0, TA Instruments, New Castle, DE) with independent binding models.

[3] = Gal4-Nurr1 hybrid reporter, HEK293T, mean ± SD, n ≥ 3, read-out: EC50(Nurr1)
[4] = Table 2, Nurr1 agonism, read-out: pEC50 (converted)
[5] = Gal4-Nurr1 hybrid reporter, HEK293T, mean ± SD, n ≥ 3

T2 sequence (P43354 360-595 limits assumed): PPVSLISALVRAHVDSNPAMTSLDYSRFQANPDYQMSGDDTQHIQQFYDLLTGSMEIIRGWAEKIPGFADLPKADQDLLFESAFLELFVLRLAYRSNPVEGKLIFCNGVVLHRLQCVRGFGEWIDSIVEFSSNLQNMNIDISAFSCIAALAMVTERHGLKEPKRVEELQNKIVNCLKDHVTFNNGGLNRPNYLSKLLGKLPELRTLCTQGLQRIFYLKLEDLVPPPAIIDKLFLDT
T1 sequence (P43354 360-595 limits assumed): as above

Row | SMILES | max. activation ([2]; mean ± SD, n ≥ 3) | EC50 [2, 3] | other results
1 | CC(C)NCC(O)COc1cccc2ccccc12 (centres unmarked) [propranolol, reference compound] | – | – | logPe (PAMPA) [1]: -5.096 and -5.109 and -5.101 and -5.087 and -5.042 and -5.07
2 | Cc1nc2c(Cl)cccn2c1NC(=O)c1ccc(-c2ccc(N)cc2)o1 [Compound 38] | <1.2-fold activation | – | AUC x10^5 (LC-MS peak area of 36 and its demethylated metabolites) (Microsomal stability; time 0 min): 0.0604 x10^5 and 0.0553 x10^5 and 0.0561 x10^5 and 0.0573 x10^5; AUC x10^5 (LC-MS peak area of 36 and its demethylated metabolites) (Microsomal stability; time 15 min): 1.99 x10^5 and 2.08 x10^5 and 1.81 x10^5 and 1.95 x10^5; AUC x10^5 (LC-MS peak area of 36 and its demethylated metabolites) (Microsomal stability; time 60 min): 4.34 x10^5 and 4.54 x10^5 and 4 x10^5 and 5.57 x10^5
3 | Cc1cccc(-c2nc3c(Cl)cccn3c2N)c1 [Compound 21] | < 1.2-fold act. | – | –
4 | Nc1c(-c2ccco2)nc2c(Cl)cccn12 [Compound 16] | < 1.2-fold act. | – | –
5 | CN(C)c1ccc(-c2ccc(C(=O)Nc3c(-c4ccc(Cl)c(Cl)c4)nc4c(Cl)cccn34)o2)cc1 [Compound 37, N-(8-Chloro-2-(3,4-dichlorophenyl)imidazo[1,2-a]pyridin-3-yl)-5-(4-(dimethylamino)phenyl)furan-2-carboxamidearboxamide] | 1.53±0.04 fold | 40 ± 10 nM | Kd (Nurr1 LBD): 80 nM
6 | Cc1cc(N)c2cccc(Cl)c2n1 [Compound 3, 8-chloro-2-methylquinolin-4-amine, reference compound] | 1.7 ± 0.1 fold | – | –
7 | Nc1c(-c2ccccc2)nc2c(Cl)cccn12 [Compound 15] | 1.4 ± 0.1 fold | 4000 ± 2000 nM | –
8 | CCN1CCN(c2cc(N3CCN(CC)CC3)nc(NCCNc3ccnc4cc(Cl)ccc34)n2)CC1 [Compound 1, reference compound] | – | – | EC50 [2, 4]: 20000 nM
9 | Cc1nc2c(Cl)cccn2c1NC(=O)c1ccc(-c2ccc(N3CCN(C)CC3)cc2)o1 [Compound 40] | – | – | highest non-toxic concentration ([2]; HEK293T): inactive (10 µM^d); EC50(Nurr1) [2, 5]: inactive (10 µM^d)
10 | O=C(Nc1ccnc2cc(Cl)ccc12)c1ccc(-c2ccc(Cl)cc2)o1 [Compound 4, reference compound] | – | – | EC50 [2, 4]: 15800 nM
11 | Cc1nc2c(Cl)cccn2c1NC(=O)c1ccc(-c2ccc(C(F)(F)F)cc2)o1 [Compound 31] | 1.8 ± 0.1 fold | 1100 ± 300 nM | –
12 | Nc1c(-c2cccc(C(F)(F)F)c2)nc2c(Cl)cccn12 [Compound 23] | < 1.2-fold act. | – | –
13 | Cc1nc2c(Cl)cccn2c1NC(=O)c1ccc(-c2ccc(OC(F)(F)F)cc2)o1 [Compound 33] | 2.0 ± 0.1 fold | 800 ± 200 nM | –
14 | Cc1[nH]c2c(Cl)cccc2c1N [Compound 6, 7-chloro-2-methyl-1H-indol-3-amine] | – | – | EC50(Nurr1) [2, 5]: unstable
15 | Nc1c(-c2ccc(Cl)cc2)nc2c(Cl)cccn12 [Compound 17] | 1.7 ± 0.2 fold | 15000 ± 3000 nM | –
16 | Cc1nc2c(Cl)cccn2c1NC(=O)c1ccc(-c2ccccc2)s1 [Compound 28] | 2.1 ± 0.1 fold | 3200 ± 400 nM | –
17 | Cc1nc2c(Cl)cccn2c1NC(=O)c1ccc(-c2ccccc2)cc1 [Compound 30] | – | – | highest non-toxic concentration ([2]; HEK293T): inactive (10 µM^b); EC50(Nurr1) [2, 5]: inactive (10 µM^b)
18 | Cc1ccc(-c2nc3c(Cl)cccn3c2N)cc1 [Compound 20] | 2.0 ± 0.2 fold | 12000 ± 2000 nM | –
19 | Cc1nc2c(Cl)cccn2c1NC(=O)c1ccc(-c2ccc(N3CCOCC3)cc2)o1 [Compound 39] | – | – | highest non-toxic concentration ([2]; HEK293T): inactive (10 µM^c); EC50(Nurr1) [2, 5]: inactive (10 µM^c)
20 | Nc1cnc2c(Cl)cccn12 [Compound 12, 3-Amino-8-chloroimidazo[1,2-a]pyridine] | – | – | Kd (Nurr1 LBD): 5100 nM
21 | Cc1nc2cc(Cl)ccn2c1N [Compound 9] | – | – | Kd (Nurr1 LBD) (Nurr1 LBD): weak binding; EC50(Nurr1) [2, 5]: inactive (100 µM)
22 | Nc1c(-c2ccc(C(F)(F)F)cc2)nc2c(Cl)cccn12 [Compound 22] | < 1.2-fold act. | – | –
23 | CC(C)c1nc2c(Cl)cccn2c1N [Compound 14] | < 1.2-fold act. | – | –
24 | Cc1nc2c(Cl)cccn2c1N [Compound 8, 8-Chloro-2-methylimidazo[1,2-a]pyridine-3-amine] | 2.0 ± 0.1 fold | 7000 ± 1000 nM | Kd (Nurr1 LBD): 2700 nM
25 | Cc1nc2cccc(Cl)c2[nH]1 [Compound 7, 4-Chloro-2-methyl-benzimidazole] | – | – | EC50(Nurr1) [2, 5]: inactive (100 µM)
26 | Nc1c(-c2ccccc2Cl)nc2c(Cl)cccn12 [Compound 19] | – | – | EC50(Nurr1) [2, 5]: inactive (100 µM)

Continued, in another order:

Row | max. activation ([2]; mean ± SD, n ≥ 3) | EC50 [2, 3] | SMILES | other results
27 | 2.1 ± 0.1 fold | 4000 ± 1000 nM | Cc1nc2c(Cl)cccn2c1NC(=O)c1ccc(-c2ccccc2)o1 [Compound 27] | –
28 | 1.8 ± 0.1 fold | 1600 ± 500 nM | Cc1nc2c(Cl)cccn2c1NC(=O)c1ccc(-c2ccc(Cl)cc2)o1 [Compound 26] | Kd (Nurr1 LBD): 700 nM
29 | 2.0 ± 0.2 fold | 130 ± 20 nM | Cc1ccc(-c2ccc(C(=O)Nc3c(C)nc4c(Cl)cccn34)o2)cc1 [Compound 32] | –
30 | 1.7 ± 0.1 fold | 9000 ± 3000 nM | Nc1c(-c2cccc(Cl)c2)nc2c(Cl)cccn12 [Compound 18] | –
31 | 1.6 ± 0.1 fold | 14000 ± 2000 nM | Cc1ccc(-c2nc3c(Cl)cccn3c2N)cc1C [Compound 25] | –
32 | 1.8 ± 0.1 fold | 300 ± 20 nM | CNc1ccc(-c2ccc(C(=O)Nc3c(C)nc4c(Cl)cccn34)o2)cc1 [Compound 35] | –
33 | 1.8 fold and 1.8±0.1 fold | – | Nc1c(-c2ccc(Cl)c(Cl)c2)nc2c(Cl)cccn12 [Compound 24, 8-Chloro-2-(3,4-dichlorophenyl)imidazo[1,2-a]pyridine-3-amine] | Kd (Nurr1 LBD): 700 nM; EC50 [2, 4]: 398 nM
